As usually defined, the EC50 is the concentration at which the effect is half-maximal.

Results on 21 compounds are retold here after patent US9708286B2, “Ingenol-3-acylates III and ingenol-3-carbamates” (LEO Laboratories Limited, priority 2010, dated 2017).

Type in all cases: cell-based
For assay [1], the system named is Primary human epidermal keratinocytes, HeKa. Nature of the assay: HeKa cytokine release (IL-8). The note with it: Homo sapiens, read-out: HeKa cytokine release (IL-8) Rel EC50 range. The procedure: Primary human epidermal keratinocytes, HeKa, were seeded (10.000 cells/well) in 96-well plates the day before the assay. Test compounds were diluted in DMSO (dimethyl sulfoxide) and further diluted in assay medium and pipetted into wells of 96 well-plates containing HeKa cells. The plates were incubated for 6 h at 37° C. in humidified air with 5% CO2. Plates were centrifuged briefly to spin down cells at 4° C., the supernatant was removed and analysed by Meso Scale Discovery (MSD) 4-spot cytokine assay (Pro-inflammatory II Ultra Sensitive kit, MSD, MD, USA). The MSD assay employs a sandwich immunoassay format where capture antibodies are coated in a patterned array on the bottom of the wells of a 4-Spot-Multi-MSD plate. Standard samples were incubated in the MULTI-SPOT plates as well, and the cytokine (IL-8) binds to its corresponding capture antibody spot. The cytokine level was quantitated on a SECTOR™ Imager using a cytokine-specific Detection Antibody labelled with MSD SULFO-TAG™ reagent.
Test compound titration curves were fitted to a four-parameter sigmoidal curve after normalizing the effect of the test compound to the effect of the positive control (1.5×10^−7 M PEP0005). Rel EC50 denotes the concentration of test compound producing an effect that is midway between the fitted top and bottom.

The subject of a further assay is HeLa cells. Briefly: Necrosis assay. The settings on record: Homo sapiens, 0.5 h, read-out: HeLa necrosis EC50 range. The essentials:
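HeLa cells treated with compound at 10 μM to 400 μM (final) for 30 min at 37° C., viability then measured by PrestoBlue fluorescence (ex 535/em 630 nm). Normalized to 1% DMSO and 400 μM ingenol mebutate controls; AbsEC50 from four-parameter sigmoidal fit.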

Assay [2] has as its system PMN's (polymorphonuclear leukocytes). Nature of the assay: Neutrophil oxidative burst. The settings on record: Leukocyte, 40 min, normalized to 5×10^−7 M PEP0005. The method in brief: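 Human buffy-coat neutrophils (2.5×10^5/well) in HBSS with 0.1% BSA, 5 mM glucose treated with compound premixed with 10 μM hydroethidine for 40 min at RT; fluorescence read at 485/579 nm. Normalized to 5×10^−7 M PEP0005; Rel EC50 is midway between fitted top and bottom, Abs EC50 gives 50% of PEP0005 maximum.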

Where [3] appears, read: read-out: Neutrophil oxidative burst Rel EC50 range, PMN from buffy coats, 40 min at RT, hydroethidine fluorescence.

Read-outs that look alike come from different tables or passages of the source.

Turning to `CC1=C[C@]23C(=O)[C@@H](C=C(CO)[C@@H](O)[C@]2(O)[C@H]1OC(=O)c1ncsc1C)[C@H]1[C@@H](C[C@H]3C)C1(C)C` [Compound 525, Ingenol 3-(5-methylthiazole-4-carboxylate)], the EC50 in assay [1] (HEKa, 6 h) was greater than 100 nM; in the assay with HeLa cells (HeLa), greater than 350000 nM; in assay [2] (setting [3]) it was 20 to 100 nM.

For `COc1cccc(N(C)C(=O)O[C@H]2C(C)=C[C@]34C(=O)[C@@H](C=C(CO)[C@@H](O)[C@]23O)[C@H]2[C@@H](C[C@H]4C)C2(C)C)c1` [Compound 748, Ingenol 3-(N-methyl-N-(3-methoxy-phenyl)-carbamate)], the half-maximal effective concentration (EC50) in assay [1] (HEKa, 6 h) was 20 to 100 nM; with HeLa cells (HeLa), 150000 to 350000 nM; in assay [2] (setting [3]), less than 20 nM.

Turning to `CCc1onc(C(C)C)c1C(=O)O[C@H]1C(C)=C[C@]23C(=O)[C@@H](C=C(CO)[C@@H](O)[C@]12O)[C@H]1[C@@H](C[C@H]3C)C1(C)C` [Compound 547, Ingenol 3-(5-ethyl-3-isopropyl-isoxazole-4-carboxylate)], the EC50 in assay [1] (HEKa, 6 h) is less than 20 nM; with HeLa cells (HeLa) it was less than 150000 nM; in assay [2] (setting [3]), 20 to 100 nM.

As for `CC1=C[C@]23C(=O)[C@@H](C=C(CO)[C@@H](O)[C@]2(O)[C@H]1OC(=O)c1sccc1-c1ccccc1)[C@H]1[C@@H](C[C@H]3C)C1(C)C` [Compound 510, Ingenol 3-(3-phenylthiophene-2-carboxylate)], the EC50 is less than 20 nM in assay [1] (HEKa, 6 h); less than 150000 nM in the assay with HeLa cells (HeLa); 20 to 100 nM in assay [2] (setting [3]).

Turning to `CC1=C[C@]23C(=O)[C@@H](C=C(CO)[C@@H](O)[C@]2(O)[C@H]1OC(=O)c1c(C)c[nH]c1C)[C@H]1[C@@H](C[C@H]3C)C1(C)C` [Compound 580, Ingenol 3-(2,4-dimethyl-1H-pyrrole-3-carboxylate)], the EC50 was greater than 100 nM in assay [1] (HEKa, 6 h); 150000 to 350000 nM in the assay on HeLa cells (HeLa); greater than 100 nM in assay [2] (setting [3]).

Turning to `CC1=C[C@]23C(=O)[C@@H](C=C(CO)[C@@H](O)[C@]2(O)[C@H]1OC(=O)N(C)c1ccccc1C)[C@H]1[C@@H](C[C@H]3C)C1(C)C` [Compound 732, Ingenol 3-(N-methyl-N-(2-methyl-phenyl)-carbamate)], the concentration for a half-maximal effect (EC50) in assay [1] (HEKa, 6 h) was less than 20 nM; in the assay with HeLa cells (HeLa) it was 150000 to 350000 nM; in assay [2] (setting [3]) it was less than 20 nM.

Regarding `CC1=C[C@]23C(=O)[C@@H](C=C(CO)[C@@H](O)[C@]2(O)[C@H]1OC(=O)c1c(C)ccn1C)[C@H]1[C@@H](C[C@H]3C)C1(C)C` [Compound 576, Ingenol 3-(1,3-dimethylpyrrole-2-carboxylate)], the 50% effective concentration (EC50) in assay [1] (HEKa, 6 h) is less than 20 nM; in the assay on HeLa cells (HeLa) it was less than 150000 nM; in assay [2] (setting [3]), less than 20 nM.

As for `CC1=C[C@]23C(=O)[C@@H](C=C(CO)[C@@H](O)[C@]2(O)[C@H]1OC(=O)c1c(C)nn(-c2ccccc2)c1C)[C@H]1[C@@H](C[C@H]3C)C1(C)C` [Compound 558, Ingenol 3-(3,5-dimethyl-1-phenyl-pyrazole-4-carboxylate)], the EC50 in assay [1] (HEKa, 6 h) was less than 20 nM; with HeLa cells (HeLa), less than 150000 nM; in assay [2] (setting [3]), less than 20 nM.

With `CC1=C[C@]23C(=O)[C@@H](C=C(CO)[C@@H](O)[C@]2(O)[C@H]1OC(=O)c1cnnc2ccccc12)[C@H]1[C@@H](C[C@H]3C)C1(C)C` [Compound 514, Ingenol 3-(cinnoline-4-carboxylate)], the 50% effective concentration (EC50) in assay [1] (HEKa, 6 h) is greater than 100 nM; in the assay with HeLa cells (HeLa), less than 150000 nM; in assay [2] (setting [3]), greater than 100 nM.

As for `CC1=C[C@]23C(=O)[C@@H](C=C(CO)[C@@H](O)[C@]2(O)[C@H]1OC(=O)c1c(-c2c(F)cccc2Cl)noc1C)[C@H]1[C@@H](C[C@H]3C)C1(C)C` [Compound 501, Ingenol 3-(5-methyl-3-(2-chloro-6-fluoro-phenyl)-isoxazole-4-carboxylate)], the EC50 was less than 20 nM in assay [1] (HEKa, 6 h); less than 150000 nM in the assay on HeLa cells (HeLa); 20 to 100 nM in assay [2] (setting [3]).

For the compound `CC1=C[C@]23C(=O)[C@@H](C=C(CO)[C@@H](O)[C@]2(O)[C@H]1OC(=O)c1cc(C)n(C)c1C)[C@H]1[C@@H](C[C@H]3C)C1(C)C` [Compound 579, Ingenol 3-(1,2,5-trimethylpyrrole-3-carboxylate)], the EC50 in assay [1] (HEKa, 6 h) is less than 20 nM; in the assay on HeLa cells (HeLa) it was 150000 to 350000 nM; in assay [2] (setting [3]), less than 20 nM.

As to `CC1=C[C@]23C(=O)[C@@H](C=C(CO)[C@@H](O)[C@]2(O)[C@H]1OC(=O)N(C)CC1CCOCC1)[C@H]1[C@@H](C[C@H]3C)C1(C)C` [Compound 746, Ingenol 3-(N-methyl-N-(tetrahydropyran-4-ylmethyl)-carbamate)], the half-maximal effective concentration (EC50) was greater than 100 nM in assay [1] (HEKa, 6 h); greater than 350000 nM in the assay with HeLa cells (HeLa); 20 to 100 nM in assay [2] (setting [3]).

With `CC1=C[C@]23C(=O)[C@@H](C=C(CO)[C@@H](O)[C@]2(O)[C@H]1OC(=O)N(C)C1CCCCC1)[C@H]1[C@@H](C[C@H]3C)C1(C)C` [Compound 709, Ingenol 3-(N-cyclohexyl-N-methyl-carbamate)], the EC50 in assay [1] (HEKa, 6 h) is less than 20 nM; in the assay on HeLa cells (HeLa) it was 150000 to 350000 nM; in assay [2] (setting [3]), less than 20 nM.

With `CC1=C[C@]23C(=O)[C@@H](C=C(CO)[C@@H](O)[C@]2(O)[C@H]1OC(=O)N(C)[C@@H](C)c1ccccc1)[C@H]1[C@@H](C[C@H]3C)C1(C)C` [Compound 716, Ingenol 3-(N-methyl-N—((S)-1-phenethyl)-carbamate)], the EC50 in assay [1] (HEKa, 6 h) is less than 20 nM; in the assay with HeLa cells (HeLa), less than 150000 nM; in assay [2] (setting [3]), 20 to 100 nM.

For `CC1=C[C@]23C(=O)[C@@H](C=C(CO)[C@@H](O)[C@]2(O)[C@H]1OC(=O)N(C)C1CCCc2ccccc21)[C@H]1[C@@H](C[C@H]3C)C1(C)C` (stereo partly drawn) [Compound 714, Ingenol 3-(N-Methyl-N-tetralin-1-yl-carbamate)], the EC50 was less than 20 nM in assay [1] (HEKa, 6 h); less than 150000 nM in the assay on HeLa cells (HeLa); greater than 100 nM in assay [2] (setting [3]).

As for `CC1=C[C@]23C(=O)[C@@H](C=C(CO)[C@@H](O)[C@]2(O)[C@H]1OC(=O)N(C)CC1CC1)[C@H]1[C@@H](C[C@H]3C)C1(C)C` [Compound 717, Ingenol 3-(N-methyl-N-(cyclopropylmethyl)-carbamate)], the EC50 in assay [1] (HEKa, 6 h) is less than 20 nM; in the assay on HeLa cells (HeLa) it was greater than 350000 nM; in assay [2] (setting [3]), less than 20 nM.

Turning to `CC1=C[C@]23C(=O)[C@@H](C=C(CO)[C@@H](O)[C@]2(O)[C@H]1OC(=O)c1c(C)nn(CC(F)(F)F)c1C)[C@H]1[C@@H](C[C@H]3C)C1(C)C` [Compound 577, Ingenol 3-(3,5-dimethyl-1-(2,2,2-trifluoroethyl)pyrazole-4-carboxylate)], the EC50 is less than 20 nM in assay [1] (HEKa, 6 h); 150000 to 350000 nM in the assay on HeLa cells (HeLa); 20 to 100 nM in assay [2] (setting [3]).

On to `CC1=C[C@]23C(=O)[C@@H](C=C(CO)[C@@H](O)[C@]2(O)[C@H]1OC(=O)c1c(C)nn(Cc2ccccc2)c1C)[C@H]1[C@@H](C[C@H]3C)C1(C)C` [Compound 560, Ingenol 3-(1-benzyl-3,5-dimethyl-pyrazole-4-carboxylate)], for which the EC50 is less than 20 nM in assay [1] (HEKa, 6 h); less than 150000 nM with HeLa cells (HeLa); less than 20 nM in assay [2] (setting [3]).

Take `CC1=C[C@]23C(=O)[C@@H](C=C(CO)[C@@H](O)[C@]2(O)[C@H]1OC(=O)N(C)c1cccc(C)c1)[C@H]1[C@@H](C[C@H]3C)C1(C)C` [Compound 743, Ingenol 3-(N-methyl-N-(3-methyl-phenyl)-carbamate)]: the concentration for a half-maximal effect (EC50) in assay [1] (HEKa, 6 h) is less than 20 nM; in the assay on HeLa cells (HeLa), 150000 to 350000 nM; in assay [2] (setting [3]) it was less than 20 nM.

For the compound `CC1=C[C@]23C(=O)[C@@H](C=C(CO)[C@@H](O)[C@]2(O)[C@H]1OC(=O)c1c(C)noc1C)[C@H]1[C@@H](C[C@H]3C)C1(C)C` [Compound 508, Ingenol 3-(3-methyl-5-methyl-isoxazole-4-carboxylate)], the 50% effective concentration (EC50) is less than 20 nM in assay [1] (HEKa, 6 h); 150000 to 350000 nM in the assay on HeLa cells (HeLa); less than 20 nM in assay [2] (setting [3]).

For the compound `CC1=C[C@]23C(=O)[C@@H](C=C(CO)[C@@H](O)[C@]2(O)[C@H]1OC(=O)N1CC2CCC(CC2)C1)[C@H]1[C@@H](C[C@H]3C)C1(C)C` [Compound 736, Ingenol 3-(3-azabicyclo[3.2.2]nonane-3-carboxylate)], the EC50 in assay [1] (HeKa cells, 6 h at 37° C., IL-8 by MSD assay, normalized to 1.5×10^−7 M PEP0005) is less than 20 nM; with HeLa cells (HeLa cells, 30 min at 37° C., PrestoBlue, AbsEC50, normalized to 400 μM ingenol mebutate), 150000 to 350000 nM; in assay [2] (PMN from buffy coats, 40 min at RT, hydroethidine fluorescence, read-out: Neutrophil oxidative burst Rel EC50 range) it was less than 20 nM.
